Experiments:
[1] = molecular target: T1, Xanthine dehydrogenase/oxidase (Bos taurus, UniProt P80457); experiment: Inhibition of bovine xanthine oxidase assessed as reduction in uric acid formation at 10 uM using xanthine as substrate pretreated for 5 mins followed by substrate addition measured by UV-vis spectrophotometric method relative to control; conditions: cattle
[2] = molecular target: T1, Xanthine dehydrogenase/oxidase; experiment: Inhibition of bovine xanthine oxidase assessed as reduction in uric acid formation using xanthine as substrate pretreated for 5 mins followed by substrate addition measured by UV-vis spectrophotometric method
[3] = molecular target: T1, Xanthine dehydrogenase/oxidase; experiment: Inhibition of bovine xanthine oxidase assessed as reduction in uric acid formation at 100 uM using xanthine as substrate pretreated for 5 mins followed by substrate addition measured by UV-vis spectrophotometric method relative to control; conditions: cattle
[4] = molecular target: T1, Xanthine dehydrogenase/oxidase; experiment: Inhibition of bovine xanthine oxidase assessed as reduction in uric acid formation at 1 uM using xanthine as substrate pretreated for 5 mins followed by substrate addition measured by UV-vis spectrophotometric method relative to control; conditions: cattle

T1 sequence (P80457 whole entry): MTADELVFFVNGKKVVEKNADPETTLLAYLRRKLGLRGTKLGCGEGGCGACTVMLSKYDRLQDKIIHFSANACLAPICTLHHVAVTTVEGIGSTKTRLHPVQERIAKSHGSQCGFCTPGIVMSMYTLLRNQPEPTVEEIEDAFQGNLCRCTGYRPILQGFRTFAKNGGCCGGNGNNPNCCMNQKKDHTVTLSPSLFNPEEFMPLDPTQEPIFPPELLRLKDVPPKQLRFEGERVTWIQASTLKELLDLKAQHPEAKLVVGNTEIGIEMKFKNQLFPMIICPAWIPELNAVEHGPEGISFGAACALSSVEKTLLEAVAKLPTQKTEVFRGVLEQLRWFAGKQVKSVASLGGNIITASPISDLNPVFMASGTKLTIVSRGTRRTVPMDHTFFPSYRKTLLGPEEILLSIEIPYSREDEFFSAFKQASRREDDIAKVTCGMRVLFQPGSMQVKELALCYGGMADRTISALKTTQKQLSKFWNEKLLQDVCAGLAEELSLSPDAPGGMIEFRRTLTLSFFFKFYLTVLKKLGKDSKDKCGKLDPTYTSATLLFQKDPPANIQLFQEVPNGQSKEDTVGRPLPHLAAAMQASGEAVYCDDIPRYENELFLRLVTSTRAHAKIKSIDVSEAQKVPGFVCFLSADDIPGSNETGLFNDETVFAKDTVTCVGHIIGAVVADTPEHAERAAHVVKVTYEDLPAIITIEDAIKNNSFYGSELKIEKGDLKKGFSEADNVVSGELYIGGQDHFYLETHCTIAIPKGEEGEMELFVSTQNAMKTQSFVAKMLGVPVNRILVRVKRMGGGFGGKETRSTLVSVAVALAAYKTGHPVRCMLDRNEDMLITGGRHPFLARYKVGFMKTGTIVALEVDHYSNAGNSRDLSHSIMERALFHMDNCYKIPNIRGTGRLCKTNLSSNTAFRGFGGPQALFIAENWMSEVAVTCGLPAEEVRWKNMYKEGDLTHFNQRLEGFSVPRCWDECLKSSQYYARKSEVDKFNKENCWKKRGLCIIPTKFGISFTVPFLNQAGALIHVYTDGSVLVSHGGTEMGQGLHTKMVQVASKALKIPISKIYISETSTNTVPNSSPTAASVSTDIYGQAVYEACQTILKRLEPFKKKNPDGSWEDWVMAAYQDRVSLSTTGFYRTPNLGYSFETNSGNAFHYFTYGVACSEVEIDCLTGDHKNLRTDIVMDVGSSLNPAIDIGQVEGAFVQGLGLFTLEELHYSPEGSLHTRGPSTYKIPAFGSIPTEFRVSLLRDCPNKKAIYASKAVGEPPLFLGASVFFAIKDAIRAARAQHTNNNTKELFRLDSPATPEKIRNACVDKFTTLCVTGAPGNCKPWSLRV

COc1ccc(Nc2ncnc3c2C(c2ccc(O)c(OC)c2)C2=C(CCCC2=O)O3)cc1 (stereo not drawn)
inhibition at 10 µM [1]: 60% | IC50 [2]: 7 µM | inhibition at 100 µM [3]: 95% | inhibition at 1 µM [4]: 30.3%

COc1ccc(Nc2ncnc3c2C(c2ccc(O)cc2)c2c(n[nH]c2C)O3)cc1 (stereo not drawn)
inhibition at 100 µM [3]: 52.1%

COc1ccc(Nc2ncnc3c2C(c2ccc(OC)c(OC)c2)c2ccc4ccccc4c2O3)cc1 (stereo not drawn)
inhibition at 100 µM [3]: 39.7%

COc1ccc(Nc2ncnc3c2C(c2cc(OC)c(OC)c(OC)c2)c2c(n[nH]c2C)O3)cc1 (stereo not drawn)
inhibition at 100 µM [3]: 47.9%

COc1ccc(Nc2ncnc3c2C(c2ccc(OC)cc2)c2c(c(=O)oc4ccccc24)O3)cc1 (stereo not drawn)
inhibition at 10 µM [1]: 43.7% | IC50 [2]: 24 µM | inhibition at 100 µM [3]: 85.3% | inhibition at 1 µM [4]: 32.4%

COc1ccc(Nc2ncnc3c2C(c2ccc(O)cc2)C2=C(CCCC2=O)O3)cc1 (stereo not drawn)
inhibition at 10 µM [1]: 42.4% | IC50 [2]: 28 µM | inhibition at 100 µM [3]: 84.8% | inhibition at 1 µM [4]: 30.5%

COc1ccc(Nc2ncnc3c2C(c2cc4ccccc4[nH]2)c2c(c(=O)oc4ccccc24)O3)cc1 (stereo not drawn)
inhibition at 100 µM [3]: 18.4%

COc1ccc(Nc2ncnc3c2C(c2cc(OC)c(OC)c(OC)c2)c2ccc4ccccc4c2O3)cc1 (stereo not drawn)
inhibition at 100 µM [3]: 25.2%

COc1ccc(Nc2ncnc3c2C(c2ccccc2OC)C2=C(CCCC2=O)O3)cc1 (stereo not drawn)
inhibition at 10 µM [1]: 43.2% | IC50 [2]: 24 µM | inhibition at 100 µM [3]: 86.5% | inhibition at 1 µM [4]: 34.8%

COc1ccc(Nc2ncnc3c2C(c2cccs2)c2c(n[nH]c2C)O3)cc1 (stereo not drawn)
inhibition at 100 µM [3]: 19.8%

COc1ccc(Nc2ncnc3c2C(c2ccc(O)c(OC)c2)c2ccc4ccccc4c2O3)cc1 (stereo not drawn)
inhibition at 100 µM [3]: 33.2%

COc1ccc(Nc2ncnc3c2C(c2ccc(OC)cc2)c2ccc4ccccc4c2O3)cc1 (stereo not drawn)
inhibition at 100 µM [3]: 31.1%

COc1ccc(Nc2ncnc3c2C(c2cc4ccccc4[nH]2)C2=C(CCCC2=O)O3)cc1 (stereo not drawn)
inhibition at 100 µM [3]: 19.3%

COc1ccc(Nc2ncnc3c2C(c2ccc(Cl)cc2)c2ccc4ccccc4c2O3)cc1 (stereo not drawn)
inhibition at 100 µM [3]: 16.7%

COc1ccc(Nc2ncnc3c2C(c2cccc(C)c2)c2ccc4ccccc4c2O3)cc1 (stereo not drawn)
inhibition at 100 µM [3]: 21.8%

COc1ccc(Nc2ncnc3c2C(c2ccc(O)c(OC)c2)c2c(n[nH]c2C)O3)cc1 (stereo not drawn)
inhibition at 10 µM [1]: 32.5% | IC50 [2]: 60 µM | inhibition at 100 µM [3]: 65.5%

COc1ccc(Nc2ncnc3c2C(c2cccs2)C2=C(CCCC2=O)O3)cc1 (stereo not drawn)
inhibition at 100 µM [3]: 59.1%

COc1ccc(Nc2ncnc3c2C(c2cc(OC)c(OC)c(OC)c2)c2c(c(=O)oc4ccccc24)O3)cc1 (stereo not drawn)
inhibition at 10 µM [1]: 37.2% | IC50 [2]: 42 µM | inhibition at 100 µM [3]: 74.5% | inhibition at 1 µM [4]: 26.2%

COc1ccc(Nc2ncnc3c2C(c2ccccc2)C2=C(CCCC2=O)O3)cc1 (stereo not drawn)
inhibition at 10 µM [1]: 37.5% | IC50 [2]: 40 µM | inhibition at 100 µM [3]: 75.4% | inhibition at 1 µM [4]: 29.1%

COc1ccc(Nc2ncnc3c2C(c2ccccc2OC)c2c(c(=O)oc4ccccc24)O3)cc1 (stereo not drawn)
inhibition at 10 µM [1]: 41.1% | IC50 [2]: 29 µM | inhibition at 100 µM [3]: 83.6% | inhibition at 1 µM [4]: 30.2%

COc1ccc(Nc2ncnc3c2C(c2ccc(F)cc2)c2c(ccc4ccccc24)O3)cc1 (stereo not drawn)
inhibition at 100 µM [3]: 19.6%

COc1ccc(Nc2ncnc3c2C(c2ccc(Br)cc2)c2c(c(=O)oc4ccccc24)O3)cc1 (stereo not drawn)
inhibition at 10 µM [1]: 32.4% | IC50 [2]: 60 µM | inhibition at 100 µM [3]: 65.8% | inhibition at 1 µM [4]: 22.2%

COc1ccc(Nc2ncnc3c2C(c2ccc(F)cc2)c2c(n[nH]c2C)O3)cc1 (stereo not drawn)
inhibition at 100 µM [3]: 35.7%

COc1ccc(Nc2ncnc3c2C(c2ccc(Br)cc2)C2=C(CCCC2=O)O3)cc1 (stereo not drawn)
inhibition at 10 µM [1]: 33.5% | IC50 [2]: 58 µM | inhibition at 100 µM [3]: 67% | inhibition at 1 µM [4]: 23.1%

COc1ccc(Nc2ncnc3c2C(c2cc(OC)c(OC)c(OC)c2)C2=C(CCCC2=O)O3)cc1 (stereo not drawn)
inhibition at 10 µM [1]: 38% | IC50 [2]: 40 µM | inhibition at 100 µM [3]: 76.8% | inhibition at 1 µM [4]: 27.4%

COc1ccc(Nc2ncnc3c2C(c2ccc([N+](=O)[O-])cc2)c2c(ccc4ccccc24)O3)cc1 (stereo not drawn)
inhibition at 100 µM [3]: 11%

COc1ccc(Nc2ncnc3c2C(c2ccc(O)c(O)c2)c2c(c(=O)oc4ccccc24)O3)cc1 (stereo not drawn)
inhibition at 10 µM [1]: 45.9% | IC50 [2]: 18 µM | inhibition at 100 µM [3]: 90.4% | inhibition at 1 µM [4]: 35%

COc1ccc(Nc2ncnc3c2C(c2ccncc2)c2c(c(=O)oc4ccccc24)O3)cc1 (stereo not drawn)
inhibition at 100 µM [3]: 45.1%

COc1ccc(Nc2ncnc3c2C(c2cccc([N+](=O)[O-])c2)C2=C(CCCC2=O)O3)cc1 (stereo not drawn)
inhibition at 10 µM [1]: 32.7% | IC50 [2]: 60 µM | inhibition at 100 µM [3]: 64.2% | inhibition at 1 µM [4]: 21.9%

COc1ccc(Nc2ncnc3c2C(c2ccc(OC)cc2)c2c(ccc4ccccc24)O3)cc1 (stereo not drawn)
inhibition at 100 µM [3]: 32.6%

COc1ccc(Nc2ncnc3c2C(c2ccc(O)c(O)c2)c2ccc4ccccc4c2O3)cc1 (stereo not drawn)
inhibition at 100 µM [3]: 36.5%

COc1ccc(Nc2ncnc3c2C(c2cccc4ccccc24)c2c(c(=O)oc4ccccc24)O3)cc1 (stereo not drawn)
inhibition at 100 µM [3]: 10%

COc1ccc(Nc2ncnc3c2C(c2ccccc2)c2c(ccc4ccccc24)O3)cc1 (stereo not drawn)
inhibition at 100 µM [3]: 20.2%

COc1ccc(Nc2ncnc3c2C(c2cccc(O)c2)c2ccc4ccccc4c2O3)cc1 (stereo not drawn)
inhibition at 100 µM [3]: 27.4%

COc1ccc(Nc2ncnc3c2C(c2ccccc2)c2c(n[nH]c2C)O3)cc1 (stereo not drawn)
inhibition at 100 µM [3]: 38.1%

COc1ccc(Nc2ncnc3c2C(c2ccc(F)cc2)c2ccc4ccccc4c2O3)cc1 (stereo not drawn)
inhibition at 100 µM [3]: 19%

COc1ccc(Nc2ncnc3c2C(c2cccc(C)c2)c2c(n[nH]c2C)O3)cc1 (stereo not drawn)
inhibition at 100 µM [3]: 43.6%

COc1ccc(Nc2ncnc3c2C(c2ccc(O)cc2)c2c(ccc4ccccc24)O3)cc1 (stereo not drawn)
inhibition at 100 µM [3]: 29.1%

COc1ccc(Nc2ncnc3c2C(c2ccc(OC)cc2)C2=C(CCCC2=O)O3)cc1 (stereo not drawn)
inhibition at 10 µM [1]: 43.5% | IC50 [2]: 25 µM | inhibition at 100 µM [3]: 87.4% | inhibition at 1 µM [4]: 32.3%

COc1ccc(Nc2ncnc3c2C(c2cccc([N+](=O)[O-])c2)c2c(n[nH]c2C)O3)cc1 (stereo not drawn)
inhibition at 100 µM [3]: 28.9%

COc1ccc(Nc2ncnc3c2C(c2ccncc2)c2c(n[nH]c2C)O3)cc1 (stereo not drawn)
inhibition at 100 µM [3]: 15.1%

COc1ccc(Nc2ncnc3c2C(c2ccc(OC)c(OC)c2)C2=C(CCCC2=O)O3)cc1 (stereo not drawn)
inhibition at 10 µM [1]: 57.5% | IC50 [2]: 8 µM | inhibition at 100 µM [3]: 94.2% | inhibition at 1 µM [4]: 29.3%

COc1ccc(Nc2ncnc3c2C(c2ccc(OC)c(OC)c2)c2c(ccc4ccccc24)O3)cc1 (stereo not drawn)
inhibition at 100 µM [3]: 39.4%

COc1ccc(Nc2ncnc3c2C(c2ccc(Br)cc2)c2ccc4ccccc4c2O3)cc1 (stereo not drawn)
inhibition at 100 µM [3]: 15.5%

COc1ccc(Nc2ncnc3c2C(c2ccc([N+](=O)[O-])cc2)C2=C(CCCC2=O)O3)cc1 (stereo not drawn)
inhibition at 10 µM [1]: 31.5% | IC50 [2]: 67 µM | inhibition at 100 µM [3]: 63.5% | inhibition at 1 µM [4]: 20%

COc1ccc(Nc2ncnc3c2C(c2cc4ccccc4[nH]2)c2c(n[nH]c2C)O3)cc1 (stereo not drawn)
inhibition at 100 µM [3]: 11.2%

COc1ccc(Nc2ncnc3c2C(c2ccc(Br)cc2)c2c(ccc4ccccc24)O3)cc1 (stereo not drawn)
inhibition at 100 µM [3]: 16.5%

COc1ccc(Nc2ncnc3c2C(c2cc(OC)c(OC)c(OC)c2)c2c(ccc4ccccc24)O3)cc1 (stereo not drawn)
inhibition at 100 µM [3]: 25.8%

COc1ccc(Nc2ncnc3c2C(c2cccc(Cl)c2)c2c(n[nH]c2C)O3)cc1 (stereo not drawn)
inhibition at 100 µM [3]: 33.1%

COc1ccc(Nc2ncnc3c2C(c2ccc(Cl)cc2)c2c(ccc4ccccc24)O3)cc1 (stereo not drawn)
inhibition at 100 µM [3]: 17.2%

COc1ccc(Nc2ncnc3c2C(c2ccncc2)C2=C(CCCC2=O)O3)cc1 (stereo not drawn)
inhibition at 100 µM [3]: 46%

COc1ccc(Nc2ncnc3c2C(c2ccc(Cl)cc2)c2c(n[nH]c2C)O3)cc1 (stereo not drawn)
inhibition at 100 µM [3]: 32.2%

COc1ccc(Nc2ncnc3c2C(c2cccc4ccccc24)C2=C(CCCC2=O)O3)cc1 (stereo not drawn)
inhibition at 100 µM [3]: 12.1%

COc1ccc(Nc2ncnc3c2C(c2cccc(O)c2)c2c(ccc4ccccc24)O3)cc1 (stereo not drawn)
inhibition at 100 µM [3]: 28.1%

COc1ccc(Nc2ncnc3c2C(c2ccc([N+](=O)[O-])cc2)c2ccc4ccccc4c2O3)cc1 (stereo not drawn)
inhibition at 100 µM [3]: 10.5%

COc1ccc(Nc2ncnc3c2C(c2ccc(OC)cc2)c2c(n[nH]c2C)O3)cc1 (stereo not drawn)
inhibition at 10 µM [1]: 29.3% | inhibition at 100 µM [3]: 58.4% | inhibition at 1 µM [4]: 20.1%

COc1ccc(Nc2ncnc3c2C(c2cccc(Cl)c2)c2c(ccc4ccccc24)O3)cc1 (stereo not drawn)
inhibition at 100 µM [3]: 17.6%

COc1ccc(Nc2ncnc3c2C(c2cccs2)c2c(c(=O)oc4ccccc24)O3)cc1 (stereo not drawn)
inhibition at 100 µM [3]: 58.8%

COc1ccc(Nc2ncnc3c2C(c2cccc(C)c2)c2c(ccc4ccccc24)O3)cc1 (stereo not drawn)
inhibition at 100 µM [3]: 22.6%

COc1ccc(Nc2ncnc3c2C(c2cccc([N+](=O)[O-])c2)c2c(ccc4ccccc24)O3)cc1 (stereo not drawn)
inhibition at 100 µM [3]: 13.3%

COc1ccc(Nc2ncnc3c2C(c2ccc(O)cc2)c2ccc4ccccc4c2O3)cc1 (stereo not drawn)
inhibition at 100 µM [3]: 28.6%

COc1ccc(Nc2ncnc3c2C(c2ccc(O)c(OC)c2)c2c(ccc4ccccc24)O3)cc1 (stereo not drawn)
inhibition at 100 µM [3]: 33.8%

COc1ccc(Nc2ncnc3c2C(c2ccc(Br)cc2)c2c(n[nH]c2C)O3)cc1 (stereo not drawn)
inhibition at 100 µM [3]: 30.3%

COc1ccc(Nc2ncnc3c2C(c2ccccc2OC)c2ccc4ccccc4c2O3)cc1 (stereo not drawn)
inhibition at 100 µM [3]: 30%

COc1ccc(Nc2ncnc3c2C(c2cccc([N+](=O)[O-])c2)c2ccc4ccccc4c2O3)cc1 (stereo not drawn)
inhibition at 100 µM [3]: 13%

COc1ccc(Nc2ncnc3c2C(c2ccccc2OC)c2c(ccc4ccccc24)O3)cc1 (stereo not drawn)
inhibition at 100 µM [3]: 30.1%

COc1ccc(Nc2ncnc3c2C(c2cccc4ccccc24)c2c(n[nH]c2C)O3)cc1 (stereo not drawn)
inhibition at 100 µM [3]: 10.1%

COc1ccc(Nc2ncnc3c2C(c2ccccc2)c2ccc4ccccc4c2O3)cc1 (stereo not drawn)
inhibition at 100 µM [3]: 20.5%

COc1ccc(Nc2ncnc3c2C(c2cccc(Cl)c2)c2ccc4ccccc4c2O3)cc1 (stereo not drawn)
inhibition at 100 µM [3]: 17.1%

COc1ccc(Nc2ncnc3c2C(c2cccc(O)c2)c2c(n[nH]c2C)O3)cc1 (stereo not drawn)
inhibition at 100 µM [3]: 50.1%

COc1ccc(Nc2ncnc3c2C(c2ccccc2OC)c2c(n[nH]c2C)O3)cc1 (stereo not drawn)
inhibition at 100 µM [3]: 55.2%

O=c1cc(-c2ccc(O)cc2)oc2cc(O)cc(O)c12 [APIGENIN]
IC50 [2]: 10.2 µM

COc1ccc(Nc2ncnc3c2C(c2ccc(O)c(O)c2)c2c(ccc4ccccc24)O3)cc1 (stereo not drawn)
inhibition at 100 µM [3]: 37.2%

COc1ccc(Nc2ncnc3c2C(c2ccc([N+](=O)[O-])cc2)c2c(n[nH]c2C)O3)cc1 (stereo not drawn)
inhibition at 100 µM [3]: 25.7%

From ChEMBL document CHEMBL4011597, “Synthesis, screening and docking of fused pyrano[3,2-d]pyrimidine derivatives as xanthine oxidase inhibitor” (Eur J Med Chem, 2017)
